# Measured values taken from US20230143612A1 (Arbutus Biopharma Corporation, priority 2020, published 2023).
# Biological target: PD-L1 His protein / PD-1 Fc protein (Homo sapiens, UniProt Q9NZQ7)
# Assay: HTRF Assay (PD-1/PD-L1 interaction)
# Type: binding
# Conditions: PD-L1 His 6 nM, PD-1 Fc 6 nM
# Outline: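 HTRF: PD-L1 His (6 nM final), compound (3-fold dilutions, 20 μM to 0.001 μM final) and PD-1 Fc (6 nM final) preincubated 15 min at room temperature. Anti-human IgG-XL665 and anti-6HIS Tb cryptate (mixed at 6.7 nM and 0.35 nM) then added for 1 h at room temperature before reading.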
# PD-L1 His protein / PD-1 Fc protein, sequence (Q9NZQ7 19-238 limits assumed): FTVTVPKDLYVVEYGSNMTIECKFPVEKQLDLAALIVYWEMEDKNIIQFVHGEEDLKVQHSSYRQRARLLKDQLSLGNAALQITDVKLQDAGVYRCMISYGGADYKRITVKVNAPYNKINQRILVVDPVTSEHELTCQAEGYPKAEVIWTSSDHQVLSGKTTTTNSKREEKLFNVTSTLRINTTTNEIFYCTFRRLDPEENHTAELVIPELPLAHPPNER
row,Structure (SMILES),IC50
1,"COc1nc(-c2cccc(-c3cccc(-c4cc5c(=O)n(C)c(CNCCO)nn5c4)c3Cl)c2Cl)ccc1CNC[C@@H]1CCC(=O)N1 [Example 351, (S)-6-(2,2′-Dichloro-3′-(6-methoxy-5-((((5-oxopyrrolidin-2-yl)methyl)amino)methyl)pyridin-2-yl)-[1,1′-biphenyl]-3-yl)-2-(((2-hydroxyethyl)amino)methyl)-3-methylpyrrolo[2,1-f][1,2,4]triazin-4(3H)-one]",200 nM
2,"O=C1CC[C@@H](CNC2COc3nc(-c4cccc(-c5cccc(-c6ccc7c(n6)OCC7NC[C@@H]6CCC(=O)N6)c5Cl)c4Cl)ccc32)N1 (stereo partly drawn) [Example 44, (5S,5'S)-5,5′-((((2,2′-Dichloro-[1,1′-biphenyl]-3,3′-diyl)bis(2,3-dihydrofuro[2,3-b]pyridine-6,3-diyl))bis(azanediyl))bis(methylene))bis(pyrrolidin-2-one)]",550 nM
3,"COc1nc(-c2cccc(-c3cccc(-c4ccn5c(=O)c(CNCCN6CCS(=O)(=O)CC6)cnc5c4)c3Cl)c2Cl)ccc1CNC[C@@H]1CCC(=O)N1 [Example 266, (S)-8-(2,2′-dichloro-3′-(6-methoxy-5-((((5-oxopyrrolidin-2-yl)methyl)-amino)methyl)-pyridin-2-yl)-[1,1′-biphenyl]-3-yl)-3-(((2-(1,1-dioxidothiomorpholino)-ethyl)-amino)-methyl)-4H-pyrido[1,2-a]pyrimidin-4-one]",17.2 nM
4,"COc1nc(-c2cccc(-c3cccc(-c4ccn5c(=O)cc(CN6C[C@@H](O)CC6=O)nc5c4)c3Cl)c2Cl)ccc1CNC[C@@H]1CCC(=O)N1 [Example 342, 8-(2,2′-Dichloro-3′-(6-methoxy-5-(((((S)-5-oxopyrrolidin-2-yl)methyl)amino)methyl)pyridin-2-yl)-[1,1′-biphenyl]-3-yl)-2-(((S)-4-hydroxy-2-oxopyrrolidin-1-yl)methyl)-4H-pyrido[1,2-a]pyrimidin-4-one]",0.1 nM
5,"COc1nc(-c2cccc(-c3cccc(-c4cc5c(=O)n(C)c(CN6CC(C)(O)C6)nn5c4)c3Cl)c2Cl)ccc1CNC[C@@H]1CCC(=O)N1 [Example 469, 6-[2-Chloro-3-[2-chloro-3-[6-methoxy-5-[[[(2S)-5-oxopyrrolidin-2-yl]methylamino]methyl]-2-pyridyl]phenyl]phenyl]-2-[(3-hydroxy-3-methyl-azetidin-1-yl)methyl]-3-methyl-pyrrolo[2,1-f][1,2,4]triazin-4-one]",5.9 nM
6,"COc1nc(-c2cccc(-c3cccc(-c4ccn5c(=O)c(CN6CC(C(C)(C)O)C6)cnc5c4)c3Cl)c2Cl)ccc1CNC[C@@H]1CCC(=O)N1 [Example 111, (S)-8-(2,2′-Dichloro-3′-(6-methoxy-5-((((5-oxopyrrolidin-2-yl)methyl)amino)methyl)pyridin-2-yl)-[1,1′-biphenyl]-3-yl)-3-((3-(2-hydroxypropan-2-yl)azetidin-1-yl)methyl)-4H-pyrido[1,2-a]pyrimidin-4-one]",6.5 nM
7,"COc1nc(-c2cccc(-c3cccc(-c4ccc5c(n4)N(C)CCC5NCc4cncc(F)c4)c3Cl)c2Cl)ccc1CNC[C@@H]1CCC(=O)N1 (mixture of isomers) [Example 91, (5S)-5-((((6-(2,2′-Dichloro-3′-(5-(((5-fluoropyridin-3-yl)methyl)amino)-8-methyl-5,6,7,8-tetrahydro-1,8-naphthyridin-2-yl)-[1,1′-biphenyl]-3-yl)-2-methoxypyridin-3-yl)methyl)amino)methyl)pyrrolidin-2-one]",180 nM
8,"COc1nc(-c2cccc(-c3cccc(-c4ccn5c(=O)c(CNC[C@@H]6CCC(=O)N6)cnc5c4)c3Cl)c2Cl)ccc1CN1CC(C(C)(C)O)C1 [Example 112, (S)-8-(2,2′-Dichloro-3′-(5-((3-(2-hydroxypropan-2-yl)azetidin-1-yl)methyl)-6-methoxypyridin-2-yl)-[1,1′-biphenyl]-3-yl)-3-((((5-oxopyrrolidin-2-yl)methyl)amino)methyl)-4H-pyrido[1,2-a]pyrimidin-4-one]",2.9 nM
9,"COc1nc(-c2cccc(-c3cccc(-c4ccc5c(n4)CCC[C@H]5NC[C@@H]4CCC(=O)N4)c3Cl)c2Cl)ccc1CNC[C@@H]1CCC(=O)N1 [Example 456, (S)-5-((((6-(2,2′-Dichloro-3′-((R)-5-((((S)-5-oxopyrrolidin-2-yl)methyl)amino)-5,6,7,8-tetrahydroquinolin-2-yl)-[1,1′-biphenyl]-3-yl)-2-methoxypyridin-3-yl)methyl)amino)methyl)pyrrolidin-2-one]",0.2 nM
10,"COc1nc(-c2cccc(-c3cccc(-c4ccn5c(=O)c(CN6CCC[C@H]6C(=O)O)cnc5c4)c3Cl)c2Cl)ccc1CNC[C@@H]1CCC(=O)N1 [Example 128, ((8-(2,2′-Dichloro-3′-(6-methoxy-5-(((((S)-5-oxopyrrolidin-2-yl)methyl)amino)methyl)pyridin-2-yl)-[1,1′-biphenyl]-3-yl)-4-oxo-4H-pyrido[1,2-a]pyrimidin-3-yl)methyl)-L-proline]",0.2 nM
11,"COc1nc(-c2cccc(-c3cccc(-c4ccn5c(=O)c(CN(C)[C@H]6C[C@](C)(O)C6)cnc5c4)c3Cl)c2Cl)ccc1CNC[C@@H]1CCC(=O)N1 [Example 318, 8-(2,2′-Dichloro-3′-(6-methoxy-5-(((((S)-5-oxopyrrolidin-2-yl)methyl)-amino)-methyl)-pyridin-2-yl)-[1,1′-biphenyl]-3-yl)-3-((((1r,3r)-3-hydroxy-3-methylcyclobutyl)(methyl)amino)methyl)-4H-pyrido[1,2-a]pyrimidin-4-one]",0.1 nM
12,"COc1nc(-c2cccc(-c3cccc(-c4ccn5c(=O)c(CNC[C@@H]6CCC(=O)N6)cnc5c4)c3Cl)c2Cl)ccc1CNCCNC(C)=O [Example 103, (S)—N-(2-(((6-(2,2′-Dichloro-3′-(4-oxo-3-((((5-oxopyrrolidin-2-yl)methyl)amino)methyl)-4H-pyrido[1,2-a]pyrimidin-8-yl)-[1,1′-biphenyl]-3-yl)-2-methoxypyridin-3-yl)methyl)amino)ethyl)acetamide]",5 nM
13,"Cc1c(COc2cc(OCc3cncc(C#N)c3)c(CNCCO)cc2Cl)cccc1-c1cccc(-c2ccc3c(c2)C(=O)N(C)CC(=O)N3CCNCCO)c1C [Example 8, 5-((4-Chloro-5-((3′-(1-(2-((2-hydroxyethyl)amino)ethyl)-4-methyl-2,5-dioxo-2,3,4,5-tetrahydro-1H-benzo[e][1,4]diazepin-7-yl)-2,2′-dimethyl-[1,1′-biphenyl]-3-yl)methoxy)-2-(((2-hydroxyethyl)amino)methyl)phenoxy)methyl)nicotinonitrile]",0.8 nM
14,"COc1nc(-c2cccc(-c3cccc(-c4cc5c(=O)n(C)c(CNCCC6CCC(=O)N6)nn5c4)c3Cl)c2Cl)ccc1CNC[C@@H]1CCC(=O)N1 (stereo partly drawn) [Example 451, 6-[2-Chloro-3-[2-chloro-3-[6-methoxy-5-[[[(2S)-5-oxopyrrolidin-2-yl]methylamino]methyl]-2-pyridyl]phenyl]phenyl]-3-methyl-2-[[2-(5-oxopyrrolidin-2-yl)ethylamino]methyl]pyrrolo [2,1-f][1,2,4]triazin-4-one]",200 nM
15,"COc1nc(-c2cccc(-c3cccc(-c4ccn5c(=O)cc(CNC[C@@H]6CCC(=O)N6)nc5c4)c3Cl)c2Cl)ccc1CNC[C@@H]1CCC(=O)N1 [Example 156, 8-(2,2′-Dichloro-3′-(6-methoxy-5-(((((S)-5-oxopyrrolidin-2-yl)methyl)amino)methyl)pyridin-2-yl)-[1,1′-biphenyl]-3-yl)-2-(((((S)-5-oxopyrrolidin-2-yl)methyl)amino)methyl)-4H-pyrido[1,2-a]pyrimidin-4-one]",1.4 nM
